Structures can show the parent of a compound that is named as a salt.
System: SARS-CoV-2
Experiment: microbe, parasite or virus in culture
Conditions: Severe acute respiratory syndrome coronavirus 2, Vero C1008, 48 h

Row | Compound | IC50 [µM] | IC50 (read-out: pIC50 (converted)) [µM]
1 | CN1C(=O)CN2CCc3ccccc3C2c2cc(Cl)ccc21 (stereo not drawn) [CLAZOLAM] | > 20 | > 20
2 | N#CC(c1ccc(Cl)cc1)c1ccc(-n2ncc(=O)[nH]c2=O)cc1Cl (stereo not drawn) [CLAZURIL] | > 20 | > 20
3 | COc1cc(N)c(Cl)cc1C(=O)NC1CCN(Cc2ccccc2)CC1 [CLEBOPRIDE] | > 20 | > 20
4 | Clc1ccc(Cn2c(CN3CCCC3)nc3ccccc32)cc1 [CLEMIZOLE] | > 20 | > 20
5 | CC(C)(C)NCC(O)c1cc(Cl)c(N)c(Cl)c1 (stereo not drawn) [CLENBUTEROL] | > 20 | > 20
6 | NC1CCN(c2c(F)cc3c(=O)c(C(=O)O)cn(C4CC4)c3c2Cl)C1 (stereo not drawn) [CLINAFLOXACIN] | > 20 | > 20
7 | CCC[C@@H]1C[C@@H](C(=O)N[C@@H]([C@H]2O[C@H](SC)[C@H](O)[C@@H](O)[C@H]2O)[C@H](C)Cl)N(C)C1 [CLINDAMYCIN HYDROCHLORIDE] | > 20 | > 20
8 | Oc1c(I)cc(Cl)c2cccnc12 [CLIOQUINOL] | > 20 | > 20
9 | CN1C(=O)CC(=O)N(c2ccccc2)c2cc(Cl)ccc21 [CLOBAZAM] | > 20 | > 20
10 | CCC(=O)O[C@]1(C(=O)CCl)[C@@H](C)C[C@H]2[C@@H]3CCC4=CC(=O)C=C[C@]4(C)[C@@]3(F)[C@@H](O)C[C@@]21C [CLOBETASOL PROPIONATE] | > 20 | > 20
11 | C[C@H]1C[C@H]2[C@@H]3CCC4=CC(=O)C=C[C@]4(C)[C@@]3(F)[C@@H](O)C[C@]2(C)[C@@]1(O)C(=O)CCl [CLOBETASOL] | > 20 | > 20
12 | CC(CN(C)C)C(C)(O)Cc1ccc(Cl)cc1 (stereo not drawn) [CLOBUTINOL] | > 20 | > 20
13 | NC(=O)C1(N2CCCCC2)CCN(CCCN2c3ccccc3CCc3ccc(Cl)cc32)CC1 [CLOCAPRAMINE] | > 20 | > 20
14 | C[C@@H]1C[C@H]2[C@@H]3C[C@H](F)C4=CC(=O)C=C[C@]4(C)[C@@]3(Cl)[C@@H](O)C[C@]2(C)[C@H]1C(=O)COC(=O)C(C)(C)C [CLOCORTOLONE PIVALATE] | > 20 | > 20
15 | CCN(CC)CCN(CC)CC(=O)Nc1ccccc1Cl [CLODACAINE] | > 20 | > 20
16 | CN(C)CCCn1c(=O)n(-c2ccccc2)c2cc(Cl)ccc21 [CLODAZON] | > 20 | > 20
17 | Nc1nc(Cl)nc2c1ncn2[C@@H]1O[C@H](CO)[C@@H](O)[C@@H]1F [CLOFARABINE] | > 20 | > 20
18 | CC(C)/N=c1\cc2n(-c3ccc(Cl)cc3)c3ccccc3nc-2cc1Nc1ccc(Cl)cc1 [CLOFAZIMINE] | > 20 | > 20
19 | CCN(CC)CCNC(=O)COc1ccc(Cl)cc1 [CLOFEXAMIDE] | > 20 | > 20
20 | CCOC(=O)C(C)(C)Oc1ccc(Cl)cc1 [CLOFIBRATE] | > 20 | > 20
21 | CC(C)(Oc1ccc(Cl)cc1)C(=O)O [CLOFIBRIC ACID] | > 20 | > 20
22 | CC(C)(C)CC(C)(C)c1ccc(O)c(Cc2ccc(Cl)cc2Cl)c1 [CLOFOCTOL] | > 20 | > 20
23 | CN(C)CCCC1c2ccccc2Nc2ccc(Cl)cc21 (stereo not drawn) [CLOMACRAN] | > 20 | > 20
24 | NC1=NCC(c2ccc(Cl)cc2)O1 (stereo not drawn) [CLOMINOREX] | > 20 | > 20
25 | O=C1CN=C(c2ccccc2Cl)c2cc([N+](=O)[O-])ccc2N1 [CLONAZEPAM] | > 20 | > 20
26 | Clc1cccc(Cl)c1NC1=NCCN1 [CLONIDINE] | > 20 | > 20
27 | Cc1c(Cl)cccc1Nc1ncccc1C(=O)OCC(O)CO (stereo not drawn) [CLONIXERIL] | > 20 | > 20
28 | Cc1c(Cl)cccc1Nc1ncccc1C(=O)O [CLONIXIN] | > 20 | > 20
29 | C[C@@H]1CCC[C@H](C)N1NC(=O)c1ccc(Cl)c(S(N)(=O)=O)c1 [CLOPAMIDE] | > 20 | > 20
